Data: publication PMC9695821, “Synthesis and Evaluation of NF-κB Inhibitory Activity of Mollugin Derivatives” (Molecules, 2022)
Marks after values point to notes of the source that are not given here.

Tests used:
[1] = MTT cytotoxicity / cell viability assay; format: cell-based; conditions: human; MTT assay, HeLa cells, 24 h treatment, normoxic conditions; mean, n = 3
Experimental: HeLa cells were inoculated and cultured in 96-well plates. After the cells adhered to the wall, the prepared target compounds with different concentrations were added to all plates for 24 h and then cultured in 5 mg/mL MTT solution for 4 h. The culture solution in the holes was sucked out, and DMSO reagent was added. After the crystallization was fully dissolved, the absorbance at 570 nm was measured by Multiskan GO.

[2] = system: NF-κB transcriptional activity; assay: NF-κB luciferase reporter assay in HeLa cells; format: cell-based; conditions: Homo sapiens, NF-κB luciferase reporter, 24 h treatment, hypoxic conditions, mean, n = 3
Experimental: A NF-κB-Luc plasmid for NF-κB luciferase reporter assay was obtained from Strategene (La Jolla, CA, USA). Transfections were performed as previously described. NF-κB-dependent luciferase activity was measured using the Dual-luciferase reporter assay system. Briefly, HeLa cells (1 × 10^5 cells/well) were seeded in a 96-well plate for 24 h. The cells were then transfected with plasmids for each well and then incubated for a transfection period of 24 h. […] Luciferase activity was determined in MicroLumat plus luminometer (EG&G Berthold, Bad Wildbad, Germany) by injecting 100 µL of assay buffer containing luciferin and measuring light emission for 10 s. Co-transfection with pRL-CMV (Promega, Madison, WI, USA), which expresses Renilla luciferase, was performed to enable normalization of data for transfection efficiency.

xylene-induced ear edema [3] = assay: Xylene-induced ear edema test, initial screening (i.p.); format: in vivo; conditions: mice; for inhibition in vivo at 100 mg/kg: Mus musculus, ip, 0.5 h, n = 6, read-out: Inhibition Rate; for Edema Mean ± SD: 100 mg/kg, n = 6
Experimental: In vivo inhibition test of xylene induced ear edema in mice was performed to evaluate its anti-inflammatory activity.
In the initial screening, mice (male) were randomly divided into experimental group, positive control drug ibuprofen and Mesalazine group, and blank group. All target compounds were dissolved in dimethyl sulfoxide, and corresponding drugs were intraperitoneally injected into experimental group, positive control group and blank group, respectively. Mice were treated with 100 mg/kg, 0.1 mL/20 g body weight, and control mice received only DMSO (0.1 mL/20 g body weight). After 30 min, 20 μL of xy-lene was evenly applied on both sides of the right ear of the mice. After 30 min of xy-lene was applied, the mice were sacrificed by cutting off their necks. Then the left and right ears of the mice were drilled with a hole punch with a diameter of 7 mm, respec-tively, to obtain two round ear pieces. The degree of swelling (right ear mass–left ear mass) was calculated for each sample, and the swelling inhibition rate of each drug was calculated using the following formula. The inhibition rate of swelling degree (%) = (mean ear swelling degree of mice in blank group […] mean ear swelling degree of mice in target compound group)/mean ear swelling degree of mice in blank group × 100%. The data were processed by GraphPadPrism 5 and expressed as mean data ± SEM. One-way ANOVA method was used for statistical analysis of relevant data. A value of p < 0.05 in the chart indicates significant and statistically significant data dif-ference.

xylene-induced ear edema [4] = assay: Xylene-induced ear edema test, deep screening (oral); format: in vivo; conditions: mice
Experimental: In the deep screening, mice were divided into target compound group, positive control group (ibuprofen), and blank group (8 male mice in each group). Target com-pound and ibuprofen were dissolved in sodium carboxymethyl cellulose aqueous solu-tion (sodium carboxymethyl cellulose to water, mass ratio 1:1000); the blank group was sodium carboxymethyl cellulose aqueous solution (sodium carboxymethyl cellu-lose to water, mass ratio 1:1000). The anti-inflammatory activities of each compound in the target compound group, positive control group, and blank group were measured at 1, 2, 3, 4, 6, 9, 12 and 24 h after taking the drug. The experimental operation and calculation method are the same as the initial screening part.

Structure (SMILES) | IC50 [2] | melting point | IC50 at 24 h [1] | inhibition in vivo at 100 mg/kg (xylene-induced ear edema [3]) | Edema Mean ± SD (xylene-induced ear edema [3]) | further results
Nc1ccc(O)c(C(=O)O)c1 [mesalazine, reference compound] |  |  |  | 51.3% | 3.2167 ± 1.1067 mg | 
CC(C)Cc1ccc(C(C)C(=O)O)cc1 (stereo not shown) [ibuprofen, reference compound] |  |  |  | 49.8% | 3.3167 ± 0.5550 mg | Inhibition (xylene-induced ear edema [4]; 100 mg/kg, time 1 h): 22.98% ***; Inhibition (xylene-induced ear edema [4]; 100 mg/kg, time 2 h): 33.33% ***; Inhibition (xylene-induced ear edema [4]; 100 mg/kg, time 3 h): 44.95% ***; Inhibition (xylene-induced ear edema [4]; 100 mg/kg, time 4 h): 47.47%; Inhibition (xylene-induced ear edema [4]; 100 mg/kg, time 4 h, listed as Ibuprfen): 47.47% ***; Inhibition (xylene-induced ear edema [4]; 100 mg/kg, time 6 h (Table 5)): 44.44% ***; Inhibition (xylene-induced ear edema [4]; 100 mg/kg, time 9 h): 34.60% ***; Inhibition (xylene-induced ear edema [4]; 100 mg/kg, time 12 h): 19.95% **; Inhibition (xylene-induced ear edema [4]; 100 mg/kg, time 24 h): 14.65% *; Inhibition (xylene-induced ear edema [4]; dose series, 25 mg/kg, 6 h): 28.95% *; Inhibition (xylene-induced ear edema [4]; dose series, 50 mg/kg, 6 h): 32.68% **; Inhibition (xylene-induced ear edema [4]; dose series, 100 mg/kg, 6 h (Table 6)): 43.32% ***
COC(=O)c1c2c(c3ccccc3c1O)OC(C)(C)C=C2 [Mollugin] | > 100 µM |  | > 100 µM | 54% | 3.0333 ± 0.9655 mg | 

More lines, main results first:

IC50 [2] | melting point | Structure (SMILES) | IC50 at 24 h [1] | inhibition in vivo at 100 mg/kg (xylene-induced ear edema [3]) | Edema Mean ± SD (xylene-induced ear edema [3]) | further results
> 100 µM | 122 to 124 °C | COC(=O)c1c2c(c3ccccc3c1OCC(=O)Nc1ccccc1C)OC(C)(C)C=C2 [Compound 4g, Methyl 2,2-dimethyl-6-(2-oxo-2-(o-tolylamino)ethoxy)-2H-Benzo [h] chromene-5-carboxylate] | > 100 µM | 42.4% | 3.8000 ± 0.5066 mg | 
> 100 µM | 116 to 118 °C | COC(=O)c1c2c(c3ccccc3c1OCC(=O)Nc1ccc3ccccc3n1)OC(C)(C)C=C2 [Compound 6k, Methyl 2,2-dimethyl-6-(2-oxo-2-(quinolin-2-ylamino)ethoxy)-2H-benzo [h] chromene-5-carboxylate] | > 100 µM | 66.9% | 2.1833 ± 0.6414 mg | 
41.9 µM | 123 to 125 °C | COC(=O)c1c2c(c3ccccc3c1OCC(=O)Nc1ccncc1C)OC(C)(C)C=C2 [Compound 6b, Methyl 2,2-dimethyl-6-(2-((3-methylpyridin-4-yl)amino)-2-oxoethoxy)-2H-benzo [h] chromene-5-carboxylate] | > 100 µM | 63.1% | 2.4333 ± 0.1795 mg | 
> 100 µM | 122 to 124 °C | COC(=O)c1c2c(c3ccccc3c1OCC(=O)Nc1ccc(Cl)cc1)OC(C)(C)C=C2 [Compound 4b, Methyl 6-(2-((4-chlorophenyl)amino)-2-oxoethoxy)-2,2-dimethyl-2H-benzo [h] chromene-5-carboxylate] | > 100 µM | 55.8% | 2.9167 ± 0.8029 mg | 
49.3 µM | 115 to 117 °C | COC(=O)c1c2c(c3ccccc3c1OCC(=O)NC1CCN(Cc3ccccc3)CC1)OC(C)(C)C=C2 [Compound 6a, Methyl 6-(2-((1-benzylpiperidin-4-yl)amino)-2-oxoethoxy)-2,2-dimethyl-2H-benzo [h] chromene-5-carboxylate] | > 100 µM | 56.6% | 2.8667 ± 1.2645 mg | 
> 100 µM | 125 to 127 °C | COC(=O)c1c2c(c3ccccc3c1OCC(=O)Nc1ccc(Br)cc1)OC(C)(C)C=C2 [Compound 4c, Methyl 6-(2-((4-bromophenyl)amino)-2-oxoethoxy)-2,2-dimethyl-2H-Benzo [h] chromene-5-carboxylate] | > 100 µM | 49.2% | 3.3500 ± 1.0579 mg | 
> 100 µM | 134 to 136 °C | COC(=O)c1c2c(c3ccccc3c1OCC(=O)NC1CC1)OC(C)(C)C=C2 [Compound 6f, Methyl 6-(2-(cyclopropylamino)-2-oxoethoxy)-2,2-dimethyl-2H-benzo [h] chromene-5-carboxylate] | > 100 µM | 57.3% | 2.8167 ± 0.6962 mg | 
